Measurements from US20050113455A1, “Method and composition for amelioration of pain” (priority 2003, published 2005).

How the values were obtained:
[1] = system: visceral nociception (stretching) in mice; assay: Murine visceral pain model: stretching in mouse i.p. acetic acid test; type: in vivo; conditions: for MED (minimum dose at which the number of stretches during the observation period is significantly different from saline controls): mouse, s.c. administration, 0.6% acetic acid i.p., 30 min observation; for Potency at inhibiting visceral nociception relative to morphine: mouse i.p. acetic acid test, dose-response relationships
Procedure: Dose-response relationships for the polyamines listed in Table 1 were performed in the mouse i.p. acetic acid test.
Assessment of Candidate Agents in a Murine Visceral Pain Model: There is an extensive literature on visceral pain in the acetic acid mouse model (Bidlack J M, Cohen D J, McLaughlin J P, Lou R, Ye Y, Wentland M P. 8-carboxamidocyclazocine: A long-acting, novel benzomorphan. J Pharmacol Exp Ther. 2002;302:374-380; Reichert J A, Daughters R S, Rivard R, Simone D A. Peripheral and preemptive opioid antinociception in a mouse visceral pain model. Pain. 2001;89:221-227; Farzin D, Asghari L, Nowrouzi M. Rodent antinociception following acute treatment with different histamine receptor agonists and antagonists. Pharmacol Biochem Behav. 2002;72:751-760; Hinschberger A, Butt 5, Lelong V, Boulouard M, Dumuis A, Dauphin F, Bureau R, Pfeiffer B, Renard P, Rault S. New benzo[h][1,6]naphthyridine and azepino[3,2-c]quinoline derivatives as selective antagonists of 5-ht4 receptors: Binding profile and pharmacological characterization. J Med Chem. 2003;46:138-147).
The mice receive either an s.c. or i.p. injection (0.3 mL) of either saline or a test drug at varying doses. Fifteen to thirty minutes following the treatment, the animals receive an i.p. injection of 0.6% acetic acid in saline (sterile, 0.3 mL). The mice are then placed into holding cages and observed for 30 mm. The number of stretches the animals make following the acetic acid injections are counted. A stretch is identified by the animal extending its hind legs well behind its body. This posture is rarely seen in a non-injected animal.

[2] = cited from earlier work

| Compound | Effectiveness in the murine visceral pain model (in words) [1] | MED (minimum dose at which the number of stretches during the observation period is significantly different from saline controls) [1] | further results |
| --- | --- | --- | --- |
| CN1CC[C@]23c4c5ccc(O)c4O[C@H]2[C@@H](O)C=C[C@H]3[C@H]1C5 [morphine, reference compound] | – | – | Overt cognitive / behavioural effects in mice ([1]; observed during mouse i.p. acetic acid test): produced stereotypical opiate induced hyperactivity and Straub tail |
| C(CCNC1CCNCC1)CNC1CCNCC1 [PIP(3,4,3), N,N′-bis(4-piperidinyl)-1,4-butanediamine] | less so | – | – |
| CCNCCCNCCCNCCCNCC [DENSPM, N^1,N^11-diethylnorspermine] | highly effective | 0.37 mg/kg s.c. | – |
| dihydroxydiethylnorspermine [(HO)2DENSPM] | – | 0.0037 mg/kg s.c. | – |
| CC(C)NCCCNCCCCNCCCNC(C)C [DIPSPM, N^1N^12-diisopropylspermime] | less so | – | – |
| CCCCNCCCNCCCCNCCCNCCCC [DBSPM, N^1N^11-dibutylspermine] | – | 0.12 mg/kg s.c. | – |
| CCNCCCN[C@H]1CC[C@H](NCCCNCC)CC1 [CHX(3,4,3)-trans, N,N′-bis[3-(ethylamino)propyl]-trans-1,4-cyclohexanediamine] | – | 0.0037 mg/kg s.c. | Potency at inhibiting visceral nociception relative to morphine [1]: more than three orders of magnitude more potent than morphine |
| CCNCCCCNCCCCNCCCCNCC [DEHSPM, N^1,N^14-diethylhomospermine] | highly effective | – | Potency at inhibiting visceral nociception relative to morphine [1]: equipotent to morphine; Cognitive effects in human clinical trials [2]: lack of cognitive effects |
| CCNCCCNCCCCNCCCNCC [DESPM, N^1,N^12-diethylspermine] | less so | – | – |
